Entries after “also recorded” stand apart in the source; their conditions may differ. Counter-ions that a name gives are not always drawn. Like-named read-outs stand apart in the source and are kept apart here. Where a SMILES comes first, the peptide text is derived from it. The star is where a group is joined. Cbz = O=C(OCc1ccccc1)*

Here are results for nine compounds from US9014457B2, “Quantifying cell death” (UCL Business PLC, priority 2009, dated 2015).

For series [1] the following is noted: in vivo; cited from earlier work.
In series [2] the test system is RGC. Nature of the series: Chronic ocular hypertensive (OHT) experimental glaucoma model, in vivo imaging with annexin V and PI. Further details: species or system rat. The text has this: For the experimental glaucoma studies, the inventors used an established model of ocular hypertension. 18 rats underwent surgery to elevate intraocular pressure (IOP) by injection of hypertonic saline solution (1.8 M) into two episcleral veins as previously described (Cordeiro et al., 2004). Contralateral, unoperated eyes acted as controls. Animals were imaged at 0, 3, 8, and 16 weeks, with at least 3 animals at each time point being killed for histology immediately after imaging. A subgroup of animals (n=4) was treated at the time of surgery with the NMDA antagonist MK801 (0.6 nmol; Tocris Cookson Ltd, Bristol UK). These animals were imaged at 3 weeks and then killed for histology.
(§1) Using a method the inventors have recently described, rats were given 2.5 μg of intravitreal Alexa Fluor 488 labelled annexin V in 5 μl PBS for identification of RGC apoptosis, 2 hours before in vivo imaging (Cordeiro et al., 2004). For mice, the inventors used 1 μl of a 0.25 mg/ml solution of IR-labelled annexin (Annexin-IR) in intravitreal injections as previously described (Schmitz-Valckenberg et al., 2008).
(§2) In order to identify necrotic RGCs in rats (2 μl) and mice (1 μl), propidium iodide (PI; 0.4 mg/ml, 1% solution, Sigma-Aldrich, Dorset UK) was administered intravitreally at the same time as annexin, 2 hours before in vivo imaging. PI intercalates into nucleic acids, binding to double-stranded DNA, but only crosses the plasma membrane of non-viable cells. Cells that have lost membrane integrity are thus identified by fluorescent red PI staining throughout the nuclei.
All rats had in vivo retinal imaging performed at regular and set intervals after experimental treatment, using a prototype Zeiss confocal scanning laser ophthalmoscope (cSLO), as previously described (Cordeiro et al., 2004; Maass et al., 2007). Imaging was performed under general anaesthesia with animals being held in a stereotaxic frame, with their pupils dilated. Different lasers and filters were used for the different fluorochromes: for excitation of Alexa Fluor 488 an Argon laser wavelength of 488 nm, and a solid state photodetector with a 521 nm cut-off filter and a 550 nm cut-on filter was employed; for DiI, a diode-pumped crystal green laser with a wavelength of 532 nm was used with 550 nm cut-off and 600 nm cut-on filters; the same laser was used for PI visualization but with a 650 nm cut-off. […] Colour and raw scatter plots of annexin and PI fluorescence intensity were constructed, so data could be analysed in a similar manner to data derived by in vitro FACS analysis. […] Fluorescence intensity counts derived from raw scatter plots were used to quantify each phase of cell death. […]

Another series deals with Bad. As to conditions: in vivo; cited from earlier work.
Series [3] has as its system RGC. Particulars: in comparison to the controls; cited from earlier work.
A further series has as its system RGCs. Particulars: in vitro and in vivo; cited from earlier work.
In series [4] the test system is RGC. In words: Abeta (Aβ25-35)-induced RGC death model, in vivo cSLO imaging with annexin V and PI. The arrangement: species or system mouse. How it is done: (§3) For the analysis of Abeta, freshly made Aβ25-35 (Sigma-Aldrich, 3.40 nmol) (Dahlgren et al., 2002) was intravitreally injected into C57 mice (n=10) (Maass et al., 2007). Animals were imaged at 72 hours. For AD 3× Tg-AD studies, 4 eyes (all female, 14 months) with 2 eyes from aged control mice (PS1KI; female, 18 months) were assessed. 3× Tg-AD and control PS1KI mice were obtained from a colony (maintained at CeSI) established after a generous gift of Frank Laferla. Intravitreal phorbol myristate acetate (1 μl of 10 μg/ml) was administered to left eyes of 3× Tg-AD animals, at the same time as annexin V and PI.
as §1, §2
(§4) In mice, the inventors used instrumentation as previously described (Maass et al., 2007; Schmitz-Valckenberg et al., 2008), with a modified cSLO (Heidelberg Retina Angiograph 2, Heidelberg Engineering, Dossenheim, Germany) and a wide-field lens (55°). The fluorescein angiogram (488 nm argon laser) and indocyanine green (IR 790 nm diode laser) settings were used to detect PI and IR-labelled annexin respectively. The same software was used to analyse video sequenced images as described before with whole retinal monochrome images from each eye recorded and colourised. Dual-color images were produced by combining each of the grayscale images from the cSLO into the red (PI), and green (IR annexin) of an RGB color image.
The left eye of each animal was treated with intravitreal 0.40 nmol MK801 at the same time as Abeta. Wide-angle retinal images were recorded 2 hours following intravitreal annexin (green) and PI (red), as previously described (Guo at al., 2006).
To assess the relative levels of early apoptosis, late apoptosis and necrosis the inventors studied the co-localization of PI and annexin V using ImageJ software with the Intensity Correlation Analysis plugin (Li et al., 2004). Colour and raw scatter plots of annexin and PI fluorescence intensity were constructed from plugin-generated data for each animal. Corresponding scatter plots (blue) from the eyes shown in FIG. 8a-b are illustrated in FIG. 8c-d. The data were analysed in a similar manner to data derived by in vitro FACS analysis, with four quadrants (midlines shaded in colour overlay as red, green, blue and yellow) enabling separation of the different phases of cell death as annexin V positive (early apoptosis, green), annexin V and PI double positive (late apoptosis, yellow) and PI positive (necrosis, red). Thresholds were set automatically by the plugin for each analysis of each eye. The inventors then used fluorescence intensity counts from the raw scatter plots to quantify each phase of cell death.
To further assess the analytical power of the technique, the inventors next investigated whether the level of oxidative stress in Abeta-treated eyes influenced the phase of cell death and whether this was possible to visualize in vivo. […] FIG. 8f-g are taken from the right untreated (F) and left PMA-treated (G) eye of an animal treated 72 hours previously with 3.40 nmol Aβ25-35. […]

The next series concerns NMDA receptors. Particulars: cited from earlier work.
For series [5], the system named is astrocyte cultures (NADPH oxidase). As to conditions: cited from earlier work.
For the next series, the system named is neuronal cells. Particulars: in vitro; cited from earlier work.
For series [6], the system named is neurons within the contra-lateral Lateral geniculate Body. Particulars: in vivo; cited from earlier work.
For series [7] the following is noted: phase III, patients with OAG; cited from earlier work.
For series [8], the system named is RGC. Particulars: in vivo; cited from earlier work.
In series [9] the test system is RGC. As to conditions: in vitro and in vivo; cited from earlier work.
Series [10] relates to RGC. Particulars: rat, in vivo; cited from earlier work.
Series [11] deals with ROS production in the retina. In words: ROS production in mouse retina in vivo visualized with DHE. Particulars: intravitreal; vs vehicle/control eye. How it is done: FIG. 12B. The effects of rotenone on ROS production in mouse retina in vivo. ROS production visualized with DHE (dihydroethidium). DHE is a non-fluorescent agent, reacting with ROS intracellularly to produce a fluorescent oxidative product which can be detected. Rotenone (50 uM, 1 ul) was intravitreally injected into the one eye (C57) and the same volume of vehicle (saline) injected into the contralateral eye. DHE (1 ul) was then injected intravitreally and both eyes imaged to detect ROS production using a SLO machine.
FIG. 12C. The effects of PMA in producing ROS in mouse retina in vivo. PMA (50 ug/ml, 1 ul) was injected intravitreally into the one eye and saline (1 ul) into the contralateral eye. DHE (1 ul) was simultaneously injected for detecting ROS production.
FIG. 12D. The effects of Aβ25-35 on ROS production in vivo. DHE was intravitreally injected into the both eyes of a mouse to detect ROS production.

The subject of series [12] is RGC. In words: Alzheimer Triple Transgenic (3× Tg-AD) model and aged PS1KI control, retinal cell death imaging. The class given is in vivo, mouse. The protocol: as §3, §1, §2, §4
However, in these studies aged (27 month) wild type congeners were not assessed.
The inventors next investigated whether oxidative stress in AD eyes influenced the phase of cell death and whether this could be visualized in vivo. As intraneuronal Aβ accumulation and extracellular Abeta plaques are characteristics of this model (LaFerla et al., 2007), the inventors hypothesised that the addition of PMA would reveal whether the level of Abeta in this transgenic mouse is sufficient to modulate the retinal response in vivo (Abramov et al., 2005). […]

In series [13] the test system is RGC. Particulars: compared with MK-801; cited from earlier work.
The mark [14] stands for this setting: 3 weeks after elevated IOP induction.
The mark [15] stands for this setting: Abeta + MK801 vs Abeta alone, 72 h.

For the compound `Nc1nc2ccc(OC(F)(F)F)cc2s1` [Riluzole], in [1], the ERG wave recovery result is reported as “enhance” and the pressure-induced apoptosis result is “prevent or decrease”.

In the case of `C[C@]12N[C@H](Cc3ccccc31)c1ccccc12` [MK801, (+)-5-methyl-10,11-dihydro-5H-dibenzo[a,d]cyclohepten-5,10-imine maleate], in the series on RGC [2] (setting [14]), the “late phase apoptosis (Anx+/PI+)” value is given as “significant reduction; also recorded: significant decrease” and the “levels of necrosis (PI+)” value is recorded as “significant reduction; also recorded: significant decrease”. Besides, the “number of dying cells (Total cell death markers)” value with RGC [2] (3 weeks after elevated IOP induction, p<0.05) is “significant reduction”. Also, in the series on RGC [2] (MK801 0.6 nmol at the time of surgery, 3 weeks, vs untreated OHT), the “numbers of annexin V and PI positive (apoptotic and necrotic) cells” value is “significantly reduced”. Besides, in the series with Bad, the Bad expression entry was “decreasing”. For the same compound, the “number of apoptotic RGCs” value in the series with RGC [3] is “reduction”. Moreover, the RGC protection result with RGCs is “protect RGCs”. In addition, the “number of annexin V and PI positive cells” value in the series with RGC [4] (72 hours after intravitreal 3.40 nmol Aβ25-35, MK801 0.40 nmol intravitreal at the same time as Abeta, vs Abeta-only fellow eye) is on record as “reduces”. In the series with RGC [4] (setting [15]), the “necrosis (PI+)” value is given as “clearly reduced; also recorded: reducing”, the “number of cells in late phase apoptosis (Anx+/PI+)” value is reported as “clearly reduced; also recorded: reducing” and the “number of early phase apoptotic cells (Anx+)” value was “small increase”. Moreover, the “overall levels of cell death (Total)” value in the series with RGC [4] (Abeta + MK801 vs Abeta alone, 72 h, co-localization scatter plot quantification) was “clearly reduced”. The neurotoxicity entry in the series on NMDA receptors is given as “neurotoxic effect”.

As for superoxide dismutase, the PMA-induced lucigenin response result in [5] is on record as “reversed”.

With `CC12CC3CC(C)(C1)CC(N)(C3)C2` [memantine, 1-amino-3,5-dimethyl-adamantane], the NMDA-induced neuronal death entry in the series on neuronal cells is listed as “reduction”. Besides, the “shrinkage of neurons (LGB layers 1, 4, and 6)” value in [6] was “reduction”. Further, the primary end point entry in series [7] is on record as “ineffective”. Moreover, in the series on RGC [8], the RGC loss entry is on record as “decreased”.

Turning to `CC(C)C[C@@H](C=O)NC(=O)[C@H](CC(C)C)NC(=O)[C@@H](NC(=O)OCc1ccccc1)C(C)C` [Z-VLL-CHO, N-benzyloxycarbonyl-Val-Leu-leucinal] (Cbz-Val-Leu-Leu-aldehyde), the RGC apoptosis result in the series with RGC [9] is reported as “reduce”.

Take Geranylgeranylacetone: in the series on RGC [10], the RGC loss result was “marked reduction” and the “expression of HSP-72” value is “increase”.

With `c1ccc2c(c1)[I+]c1ccccc1-2` [DPI], in series [5], the PMA-induced lucigenin response entry is given as “blocked”.

Take `CCCCCCCCCCCCCC(=O)O[C@@H]1[C@@H](C)[C@@]2(O)[C@@H](C=C(CO)C[C@]3(O)C(=O)C(C)=C[C@@H]23)[C@@H]2C(C)(C)[C@]12OC(C)=O` [PMA, phorbol myristate acetate]: the “ROS production in the retina (DHE fluorescence)” value in [11] is “significantly higher levels of ROS production”. The “late apoptosis (Anx+/PI+)” value in the series on RGC [12] (3× Tg-AD model, p<0.05) is “decreased”. Further, the “increase in early phase apoptosis (Anx+)” value in the series with RGC [12] (14-month 3× Tg-AD, 2 hours after intravitreal PMA with annexin and PI) worked out at 61.4%; with RGC [12] (aged control (PS1KI, 18 month), 2 hours after intravitreal PMA) it was 30.3%. Moreover, the necrosis entry in the series with RGC [12] (control eyes, p<0.05) was “decreased”. Besides, the “ROS generation (lucigenin)” value in [5] (1 μg/ml) is listed as “increase”. For the same compound, the “overall levels of cell death (Total)” value with RGC [4] (Abeta + PMA vs Abeta, all treated animals, p<0.05) is listed as “significantly (p<0.05) increases”. Also, the “number of cells in the early phase of apoptosis (Anx+)” value in the series on RGC [4] (Abeta + PMA vs Abeta, p<0.05) is “significantly (p<0.05) increased; also recorded: significant (p<0.05) increase”. In addition, the “annexin V (and PI) positive cells” value with RGC [4] (PMA 0.016 nmol with annexin V and PI, 72 hours after 3.40 nmol Aβ25-35, imaging 2 hours later, vs vehicle eye) is reported as “increased”.

As to `O=[N+]([O-])c1cc2nc(O)c(O)nc2cc1[N+](=O)[O-]` [DNQX], the RGC survival result in the series with RGC [13] is reported as “greater enhancement”.
